Test results as given in paper PMC7089970, “Structural insights into catalytic mechanism and product delivery of cyanobacterial acyl-acyl carrier protein reductase” (Nature Communications, 2020).
Where two headings read alike, the source gives them in different places. Values belong to the molecule of their own block, whether it stands above or below them.

Columns and labels:
AAR [1] = details: ITC
Description: To verify this assumption, we measured the binding affinity of K^+ ions with AAR, using ITC method.
AAR to perform all the experiments. The small organic molecule, such as stearoyl-CoA, can be used in high concentration, which is more favorable for either co-crystallization with AAR(-ADO) or soaking with the AAR(-ADO) crystals. In comparison, stearoyl-ACP is an 80-residue protein with a stearoyl chain linked to the 4’-phosphopanthetheine on a Ser residue, while the crystallization of protein-protein complexes (AAR-ACP) is much difficult than that of protein-ligand
(AAR-stearoyl-CoA) complexes.
ACP protein covalently linked with stearic chain (stearoyl-ACP), according to the […]
Considering the similar chemical structure of the acyl part of acyl-ACP and acyl-CoA, and the time-consuming experimental processes for obtaining the stearoyl-ACP protein and […]
In our originally submitted manuscript, we supposed that Mg2+ ion binds with AAR near its active site, but we […]
performed ITC experiment to confirm whether Mg2+ ions bind with AAR.
4. The authors assumed that Mg2+ and K+ ions bind to AAR in the crystals. However,
Therefore, it is required to confirm that Mg2+ and/or K+ really bind to AAR using […]
We have now performed the ITC

AAR [2] = details: cited from earlier work
AAR-wt = molecular target: T1, AAR-wt (Synechococcus elongatus, UniProt Q54765); assay: Isothermal titration calorimetry, stearoyl-CoA (650 uM) titrated into 30 uM AAR in 25 mM Tris-HCl pH 7.6, 1 mM TCEP, without KCl.; format: binding; details: read-out: KD value (µM), AAR (−K+)
T1 construct: gene Synpcc7942_1594; full length (341 residues), C-terminal His-tag removed by TEV protease; expressed in E. coli BL21(DE3) with chaperone plasmid pG-KJE8

[3] = molecular target: T2, acyl-ACP reductase from Synechococcus elongatus PCC 7942, C294S mutant (Synechococcus elongatus PCC 7942, UniProt Q54765 1-341, C294S); assay: crystal structure; AAR incubated with stearoyl-CoA (1:3), then with ADO (1:1), gel filtration; crystals in 0.1 M HEPES pH 7.5, 20% PEG8000; NADPH form by soaking; details: both partners purified
T2 construct: acyl-ACP reductase (AAR), Synechococcus elongatus PCC 7942, gene Synpcc7942_1594; complete protein of 341 residues; also called AAR C294S; AAR_(stearoyl-CoA); source: E. coli BL21(DE3), purified (same protocol as wild-type AAR); incubated with stearoyl-CoA before ADO was added; not shown: His6, C-terminal, cleaved
T2 sequence (looked up): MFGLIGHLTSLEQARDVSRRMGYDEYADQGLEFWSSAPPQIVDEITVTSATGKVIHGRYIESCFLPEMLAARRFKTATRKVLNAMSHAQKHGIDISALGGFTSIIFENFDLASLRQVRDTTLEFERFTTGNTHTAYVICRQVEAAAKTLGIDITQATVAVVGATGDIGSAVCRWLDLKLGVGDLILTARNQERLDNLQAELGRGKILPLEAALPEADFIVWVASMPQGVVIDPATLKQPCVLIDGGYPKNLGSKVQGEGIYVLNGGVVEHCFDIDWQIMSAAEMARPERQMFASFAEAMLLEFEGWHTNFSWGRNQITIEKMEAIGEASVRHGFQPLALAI

T1 sequence (Q54765 whole entry): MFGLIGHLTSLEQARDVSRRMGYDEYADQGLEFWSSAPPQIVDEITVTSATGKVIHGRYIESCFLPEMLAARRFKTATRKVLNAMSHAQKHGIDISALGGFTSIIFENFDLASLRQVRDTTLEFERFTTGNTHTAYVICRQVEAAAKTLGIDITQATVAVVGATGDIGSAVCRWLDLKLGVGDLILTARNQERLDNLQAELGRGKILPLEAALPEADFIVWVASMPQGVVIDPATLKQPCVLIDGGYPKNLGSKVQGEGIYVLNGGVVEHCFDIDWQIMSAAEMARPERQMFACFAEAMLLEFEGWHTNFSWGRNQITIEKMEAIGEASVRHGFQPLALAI

Molecule: [K+] [K^+]
binding of metal ion with AAR (in words) (AAR [1]): failed to detect signs of AAR binding K^+ ions
binding of metal ion with AAR (in words) (AAR [1]; listed as K+): do not stably/directly bind AAR
stimulation of AAR activity by monovalent metal ions (AAR [2]): 10–20 fold

Molecule: CCCCCCCCCCCCCCCCCC(=O)SCCNC(=O)CCNC(=O)[C@H](O)C(C)(C)COP(=O)(O)OP(=O)(O)OC[C@H]1O[C@@H](n2cnc3c(N)ncnc32)[C@H](O)[C@@H]1OP(=O)(O)O [stearoyl-CoA, stearoyl-coenzyme A]
Kd (AAR-wt): 2.3 ± 0.38 µM

binding result [3]: binds
B1: aldehyde-deformylating oxygenase from Synechococcus elongatus PCC 7942, wild type, His-tag removed (enzyme, UniProt Q54764 1-231, looked up)
chain: MPQLEASLELDFQSESYKDAYSRINAIVIEGEQEAFDNYNRLAEMLPDQRDELHKLAKMEQRHMKGFMACGKNLSVTPDMGFAQKFFERLHENFKAAAAEGKVVTCLLIQSLIIECFAIAAYNIYIPVADAFARKITEGVVRDEYLHRNFGEEWLKANFDASKAELEEANRQNLPLVWLMLNEVADDARELGMERESLVEDFMIAYGEALENIGFTTREIMRMSAYGLAAV
notes: aldehyde-deformylating oxygenase (ADO), Synechococcus elongatus PCC 7942, gene Synpcc7942_1593; Constructed and expressed 'similarly as' SeAAR in the modified pET24a (C-terminal TEV site and His6 peptide); ENLYFQ probably stays after cleavage (surmised); also called ADO; SeADO; not shown: His6, C-terminal, cleaved
